Literature values as cited in patent publication US9302007B2, “Low surfactant iodine topical disinfectant” (DELAVAL HOLDING AB, priority 2011, dated 2016).

Conditions: room temperature

Structure (SMILES): II
- solubility of iodine in water: about 300 ppm
